In US6395787B1, “Ocular hypotensive lipids” (Allergan Sales, Inc., priority 2000, dated 2002):

Tests used:
[1] = system: isolated guinea pig vas deferens (EP3 receptor subtype); assay: Inhibition of field stimulated contraction of isolated guinea pig vas deferens
Description: (§1) Smooth muscle tension of isolated tissues was measured isometrically with force displacement transducers (Grass FT-03) and recorded on Grass Polygraphs (Models 7G and 79E). The organ baths contained Krebs solution maintained at 37° C. and gassed with 95% 02/5% CO2 to give a pH of 7.4. The Krebs solution had the following composition (mM): NaCl, 118.0; KCl, 4.7; KH2PO4, 1.2; CaCl2, 1.9; MgSO4, 1.18; NaHCO3, 25.0; glucose, 11.7; indomethacin, 0.001.
Activity at the prostaglandin-sensitive EP3 receptor subtype was also determined by the ability of prostanoids to inhibit the smooth muscle twitch response stimulated by an electrical current in the isolated guinea pig vas deferens. 1.5 cm portions of the guinea pig vas deferens were suspended under 1 g initial tension and allowed to equilibrate for at least 30 minutes. Tissues were then subjected to stimulation every 30 seconds by 20 volt electrical pulses. After stabilization of the twitch response, a standard dose response curve to PGE2 was performed in a cumulative fashion. Test compounds were then evaluated by performing a cumulative dose response curve. Tissues were washed-out and allowed to equilibrate for 1 hr between compounds. PGE2 was once again evaluated at the conclusion of the experiment as a standard reference. Activity was calculated as the percent inhibition of the height of the muscle twitch response.

[2] = system: isolated chick ileum (EP3 receptor preparation); assay: Isolated chick ileum contraction; settings: compared to prostaglandin E2, 10^−6 M
Description: as §1
The chick ileum is an EP3 receptor preparation. Portions of the chick ileum of 1.5 cm length were suspended under 1 g of tension. After a one hour equilibration period, a standard dose-response curve for PGE2 was obtained in a non-cumulative fashion with 30 minute wash-out periods between individual doses. Subsequently, test compound was added non-cumulatively. A maximal dose of PGE2 (10^−6 M) was finally given to serve as a second reference standard. Contractile activity at each concentration was then calculated as a % of the maximal PGE2 response reached at a 10^−6 M concentration.

[3] = system: isolated guinea pig ileum (EP1 receptor preparation); assay: Isolated guinea pig ileum contraction
Description: as §1
The guinea pig ileum is an EP1 receptor preparation. An approximately 1.5 cm segment of guinea pig ileum was suspended in a jacketed organ bath under 1 g tension. Following a 1 hr equilibration period, a wash-out dose response curve for PGE2 was obtained. 30 min wash-out periods were allowed between doses. […] A final administration of PGE2 10^−6 M was given as a reference. Data were expressed as % maximal of the PGE2 response.

[4] = system: isolated rat aorta (TP receptor preparation); assay: Isolated rat aorta contraction; settings: 10^−6 and 10^−5 M
Description: as §1
Adult Sprague Dawley rats weighing 180-220 grams were anesthetized by CO2 inhalation and then decapitated and exsanguinated. The thoracic aorta was removed and cleaned of any adhering tissue. The lumen was flushed to remove any blood. The aorta was dissected into three small segments of 5-8 mm length. Each segment was mounted under 2 g of tension in a jacketed 10 ml organ bath with the aid of two wire hooks placed through the lumen of the vessel. This arrangement allowed for measurement of contraction forces developed by the circular smooth muscle. The tissues were allowed to equilibrate for 1 hour before compounds were added cumulatively to the organ baths. The response to 10^−7 M U-46619 (a thromboxane mimetic) was determined at the beginning and end of each experiment as a reference. A 30-45 minute recovery period was allowed after complete wash-out of drug. Only one test compound was examined in each tissue.

[5] = system: rabbit jugular vein segment; assay: Vasorelaxation of histamine precontracted rabbit jugular vein segment
Description: as §1
New Zealand albino rabbit of either sex, weighing 2-4 kg, were injected with 1000 U heparin into the marginal ear vein and then sacrificed by CO2 gas. The external jugular veins were cleared of fat and adherent connective tissue and removed. The veins were transected and each ring of 3-4 mm length was suspended between two metal hooks in a jacketed organ bath. The tissues were equilibrated for 1 hr under 0.75 g tension, which was readjusted as the tissues relaxed. Single doses of histamine, 10^−5 M then 2-3×10^−6 M, with washing after each dose, were given to contract the tissue and establish responsiveness. The TP-receptor antagonist SQ29548, (Ogletree et al. (1985) J. Pharmacol. Exp. Ther. 234 435-441) at (10^−6 M), was applied for 5 min and then histamine 2-3×10^−6 M was added to elicit the contractile response. After 30 min of pretreatment with the histamine, the relaxant response was tested by adding cumulative doses of the test compounds with 10^−8 M to 10^−7 M PGE2 at the end of each dose-response curve as a reference. A recovery period of 30-50 min was allowed after wash-out of the tissues. Relaxant activity was calculated as % of the control tone elicited by histamine.

dog intraocular pressure = assay: Intraocular pressure in conscious Beagle dogs; assay type: in vivo; settings: 0.1% dose, topical
Description: Intraocular pressure studies in dogs involved pneumatonometry performed in conscious, Beagle dogs of both sexes (10-15 kg). The animals remained conscious throughout the study and were gently restrained by hand. Drugs were administered topically to one eye as a 25 μL volume drop, the other eye received 25 μL vehicle (0.1% polysorbate 80:10 mM TRIS) as a control. 0.1% proparacaine was used for corneal anesthesia during tonometry. Intraocular pressure was determined just before drug administration and at 2, 4 and 6 hr thereafter on each day of the 5 day study. Drug was administered immediately after the first IOP reading.

dog pupil diameter = assay: Dog pupil diameter; assay type: in vivo; settings: 0.1%; for Pupil diameter (mm), test eye: n = 6
Description: Dog pupil diameter was measured using an optistick (a mm ruler which included half-circle references of standard widths (mm) for reference. Gently restraining the dog by hand, pupil diameter was determined by matching a half-circle to the pupil in normal room light. In dogs with very dark pupils a specialized penlight was used, but only very briefly to avoid pupil constriction. Pupil diameter was measured at the same time as IOP and hyperemia.

For `CCCCC[C@H](O)/C=C/[C@@H]1[C@@H](C/C=C\CCCC(=O)NCCO)[C@@H](O)C[C@H]1O` [PGF2α 1-ethanolamide, (5Z,8α,9α,11α,13E,15S)-9,11,15-trihydroxy-N-(2-hydroxyethyL)prosta-5,13-dien-1-amide], the “inhibiting field stimulation evoked contraction” value [1] was “modestly effective”, the “effect on the isolated chick ileum” value [2] was “weak partial agonist” and the Emax at 10 µM ([3]; Cavia porcellus, 10^−5 M, reference contraction PGE2 10^−6 M, n = 4, read-out: % Maximal response mean χ ± SEM) was 9.7 ± 4.2%. It also gave an Emax at 1 µM ([3]; Cavia porcellus, 10^−6 M, reference contraction PGE2 10^−6 M, n = 4, read-out: % Maximal response mean χ ± SEM) of 4 ± 2.6%, an Emax at 0.1 µM ([3]; Cavia porcellus, 10^−7 M, reference contraction PGE2 10^−6 M, n = 4, read-out: % Maximal response mean χ ± SEM) of 0% and an Emax at 0.01 µM ([3]; Cavia porcellus, 10^−8 M, reference contraction PGE2 10^−6 M, n = 4, read-out: % Maximal response mean χ ± SEM) of 0%. For the same molecule, the “effect in the guinea pig ileum” value ([3]; compared with chick ileum) was “less effective”, the “effect on the isolated rat aorta” value [4] was “Residual activity occurred at high doses” and the EC50 ([5]; Oryctolagus cuniculus, histamine precontracted, read-out: E.C.50, vasorelaxation of the precontracted rabbit jugular vein segment) was 2000 nM. The endothelium dependent vasorelaxation ([5]; histamine precontracted rabbit jugular vein segment) was “relatively little activity”, the “duration of intraocular pressure effect” value (dog intraocular pressure) was “persisted over the entire 24 hr experimental period” and the “effect on intraocular pressure” value (dog intraocular pressure) was “marked and highly significant decrease”. For the same molecule, the “Pupil diameter (mm), test eye” value (dog pupil diameter; 0 HR (baseline)) was 6.7 ± 0.2 mm, the “Pupil diameter (mm), test eye” value (dog pupil diameter; 2 HR) was 1.0 ± 0.4 mm and the “Pupil diameter (mm), test eye” value (dog pupil diameter; 4 HR) was 1.0 ± 0.3 mm. The “Pupil diameter (mm), test eye” value (dog pupil diameter; 6 HR) was 1.5 ± 0.4 mm, the “Pupil diameter (mm), test eye” value (dog pupil diameter; 24 HR) was 7.0 ± 0.3 mm and the miosis (dog pupil diameter; topical) was “marked miosis”.
